Experimental data from patent US5079231A, “Immunostimulating peptides, a process for their preparation and pharmaceutical compositions containing them” (Ellem Industria Farmaceutica S.p.A., priority 1988, dated 1992).
No end group written: not given here.

How the values were obtained:
[1] = Resistance to the in vitro simulated gastric ambient; format: in vitro ADME; conditions: 37° C., 3 hours, gastric simulated juice USP XXl (HCl+pepsin)
Experimental: Resistance to the in vitro simulated gastric ambient
The hexapeptides Arg-Lys-Glu-Arg-Ala-Arg and Arg-Ala-Arg-Arg-Lys-Glu are stable at 37° C. for 3 hours in in vitro simulated gastric ambient using the gastric simulated juice USP XXl (HCl+pepsin).

[2] = known tripeptides; cited from earlier work
[3] = tested on: T-lymphocytes; conditions: known peptides, earlier patent applications and literature; cited from earlier work

Row | Resistance to the in vitro simulated gastric ambient [1] | Substance | stability to the in vitro simulated gastric juice [2] | immunostimulating activity (maturation and functionality of T-lymphocytes) [3]
1 | stable | RARRKE [ARG--ALA--ARG--ARG--LYS--GLU, Arg-Ala-Arg-Arg-Lys-Glu] | – | –
2 | – | Arg-Ala-Arg | stable | endowed with immunostimulating activity
3 | stable | RKERAR [ARG--LYS--GLU--ARG--ALA--ARG, Arg-Lys-Glu-Arg-Ala-Arg] | – | –
4 | – | Arg-Lys-Glu | stable | has immunostimulating properties
5 | – | Arg-Gly-Asp | – | displays a similar behaviour
6 | – | Arg-Lys-Asp | – | displays a similar behaviour
